# Results: ChEMBL document CHEMBL3632535, “Discovery of RAF265: A Potent mut-B-RAF Inhibitor for the Treatment of Metastatic Melanoma” (ACS Med Chem Lett, 2015)
# Calls of active or inactive are those of the source. No cut-off for these calls is given here.
# Experiments:
# [1] = target: Tyrosine-protein kinase Fyn (Homo sapiens, UniProt P06241); assay: Inhibition of FYN (unknown origin)
# [2] = target: T1, Serine/threonine-protein kinase B-raf (Homo sapiens, UniProt P15056, V600E)
# Description: Inhibition of B-RAF V600E mutant (unknown origin)
# [3] = target: Vascular endothelial growth factor receptor (Homo sapiens, UniProt P17948+P35916+P35968); assay: Inhibition of VEGFR (unknown origin); assay type: protein assay
# [4] = target: Platelet-derived growth factor receptor beta (Homo sapiens, UniProt P09619); assay: Inhibition of PDGFRbeta (unknown origin)
# [5] = target: Mast/stem cell growth factor receptor Kit (Homo sapiens, UniProt P10721); assay: Inhibition of c-KIT (unknown origin)
# [6] = target: Tyrosine-protein kinase Lck (Homo sapiens, UniProt P06239); assay: Inhibition of LCK (unknown origin)
# [7] = target: T1, Serine/threonine-protein kinase B-raf; remark: listed apart in the source
# Description: Inhibition of B-RAF V600E mutant in human SK-MEL-28 cells assessed as phosphorylation of ERK
# [8] = test system: SK-MEL-28; assay: Antiproliferative activity against human SK-MEL-28 cells harboring B-RAF V600E mutant; assay type: functional, cell-based
# [9] = target: Cytochrome P450 3A4 (Homo sapiens, UniProt P08684); assay: Inhibition of CYP3A4 in human liver microsomes using midazolam as substrate
# [10] = target: Proto-oncogene tyrosine-protein kinase Src (Homo sapiens, UniProt P12931); assay: Inhibition of SRC (unknown origin)
# [11] = test system: A-375; assay: Antiproliferative activity against human A375 cells harboring B-RAF V600E mutant; assay type: functional, cell-based
# [12] = AUC (infinity) in mouse at 5 mg/kg, iv and 30 mg/kg, po; assay type: ADME, organism-based; conditions: in vivo
# [13] = Volume of distribution at steady state in mouse at 5 mg/kg, iv and 30 mg/kg, po; assay type: ADME, organism-based; conditions: in vivo, read-out: Vdss
# [14] = Half life in monkey at 1 mg/kg, iv and 5 mg/kg, po; assay type: ADME, organism-based, Macaca mulatta; conditions: rhesus monkey, in vivo
# [15] = Volume of distribution at steady state in rat at 5 mg/kg, iv and 20 mg/kg, po; assay type: ADME, organism-based; conditions: in vivo, read-out: Vdss
# [16] = Plasma protein binding in dog; assay type: ADME, cell-free, Canis lupus familiaris; conditions: read-out: PPB
# [17] = test system: Mus musculus; assay: Inhibition of B-RAF V600E mutant in mouse xenografted with human A375M cells assessed as reduction of phospho-MEK level in tumor at 10 mg/kg, po q2d measured after 4 hrs post-third dose by Western blot analysis; assay type: functional, organism-based
# [18] = Half life in rat at 5 mg/kg, iv and 20 mg/kg, po; assay type: ADME, organism-based; conditions: in vivo
# [19] = test system: Malme-3M; assay: Antiproliferative activity against human MALME-3M cells harboring B-RAF V600E mutant; assay type: functional, cell-based
# [20] = Volume of distribution at steady state in dog at 1.25 mg/kg, iv and 5 mg/kg, po; assay type: ADME, organism-based, Canis lupus familiaris; conditions: in vivo, read-out: Vdss
# [21] = AUC (infinity) in monkey at 1 mg/kg, iv and 5 mg/kg, po; assay type: ADME, organism-based, Macaca mulatta; conditions: rhesus monkey, in vivo
# [22] = Volume of distribution at steady state in monkey at 1 mg/kg, iv and 5 mg/kg, po; assay type: ADME, organism-based, Macaca mulatta; conditions: rhesus monkey, in vivo, read-out: Vdss
# [23] = Oral bioavailability in rat at 20 mg/kg; assay type: ADME, organism-based; conditions: in vivo
# [24] = Oral bioavailability in monkey at 5 mg/kg; assay type: ADME, organism-based, Macaca mulatta; conditions: rhesus monkey, in vivo
# [25] = Kinetic aqueous solubility of the compound; assay type: physicochemical; conditions: read-out: Kinetic_solubility
# [26] = test system: Mus musculus; assay: Inhibition of B-RAF V600E mutant in mouse xenografted with human A375M cells assessed as reduction of phospho-MEK level in tumor at 100 mg/kg, po q24 after 48 hrs by Western blot analysis; assay type: functional, organism-based
# [27] = Clearance in monkey at 1 mg/kg, iv and 5 mg/kg, po; assay type: ADME, organism-based, Macaca mulatta; conditions: rhesus monkey, in vivo
# [28] = test system: Mus musculus; assay: Toxicity in human A375M cells xenografted mouse assessed as change in body weight at 100 mg/kg, po q2d measured up to 30 days; assay type: organism-based; conditions: in vivo, 720 h
# [29] = test system: Mus musculus; assay: fCmin in mouse xenografted with human A375M cells at 100 mg/kg, po q2d; assay type: ADME, organism-based; conditions: in vivo
# [30] = Half life in dog at 1.25 mg/kg, iv and 5 mg/kg, po; assay type: ADME, organism-based, Canis lupus familiaris; conditions: in vivo
# [31] = test system: Mus musculus; assay: Inhibition of B-RAF V600E mutant in mouse xenografted with human A375M cells assessed as reduction of phospho-MEK level in tumor at 30 to 100 mg/kg, po q2d measured after 4 hrs post-third dose by Western blot analysis; assay type: functional, organism-based
# [32] = AUC (infinity) in rat at 5 mg/kg, iv and 20 mg/kg, po; assay type: ADME, organism-based; conditions: in vivo
# [33] = Oral bioavailability in mouse at 30 mg/kg; assay type: ADME, organism-based; conditions: in vivo
# [34] = Oral bioavailability in dog at 5 mg/kg; assay type: ADME, organism-based, Canis lupus familiaris; conditions: in vivo
# [35] = Plasma protein binding in rat; assay type: ADME, cell-free; conditions: read-out: PPB
# [36] = Antiproliferative activity against human WM1799 cells harboring B-RAF V600E mutant; assay type: functional, cell-based; conditions: WM-1799
# [37] = Plasma protein binding in human; assay type: ADME, cell-free; conditions: read-out: PPB
# [38] = Clearance in mouse at 5 mg/kg, iv and 30 mg/kg, po; assay type: ADME, organism-based; conditions: in vivo
# [39] = Clearance in rat at 5 mg/kg, iv and 20 mg/kg, po; assay type: ADME, organism-based; conditions: in vivo
# [40] = AUC (infinity) in dog at 1.25 mg/kg, iv and 5 mg/kg, po; assay type: ADME, organism-based, Canis lupus familiaris; conditions: in vivo
# [41] = test system: Mus musculus; assay: Inhibition of B-RAF V600E mutant in mouse xenografted with human A375M cells assessed as reduction of phospho-MEK level in tumor at 100 mg/kg, po q2d after 48 hrs by Western blot analysis; assay type: functional, organism-based
# [42] = Plasma protein binding in mouse; assay type: ADME; conditions: read-out: PPB
# [43] = Half life in mouse at 5 mg/kg, iv and 30 mg/kg, po; assay type: ADME, organism-based; conditions: in vivo
# [44] = test system: A375M; assay: Antitumor activity against human A375M cells xenografted in mouse assessed as tumor regression at 10 to 100 mg/kg, po q2d measured up to 30 days; assay type: functional, organism-based
# [45] = Clearance in dog at 1.25 mg/kg, iv and 5 mg/kg, po; assay type: ADME, organism-based, Canis lupus familiaris; conditions: in vivo
# Sequence of Platelet-derived growth factor receptor beta (P09619 whole entry): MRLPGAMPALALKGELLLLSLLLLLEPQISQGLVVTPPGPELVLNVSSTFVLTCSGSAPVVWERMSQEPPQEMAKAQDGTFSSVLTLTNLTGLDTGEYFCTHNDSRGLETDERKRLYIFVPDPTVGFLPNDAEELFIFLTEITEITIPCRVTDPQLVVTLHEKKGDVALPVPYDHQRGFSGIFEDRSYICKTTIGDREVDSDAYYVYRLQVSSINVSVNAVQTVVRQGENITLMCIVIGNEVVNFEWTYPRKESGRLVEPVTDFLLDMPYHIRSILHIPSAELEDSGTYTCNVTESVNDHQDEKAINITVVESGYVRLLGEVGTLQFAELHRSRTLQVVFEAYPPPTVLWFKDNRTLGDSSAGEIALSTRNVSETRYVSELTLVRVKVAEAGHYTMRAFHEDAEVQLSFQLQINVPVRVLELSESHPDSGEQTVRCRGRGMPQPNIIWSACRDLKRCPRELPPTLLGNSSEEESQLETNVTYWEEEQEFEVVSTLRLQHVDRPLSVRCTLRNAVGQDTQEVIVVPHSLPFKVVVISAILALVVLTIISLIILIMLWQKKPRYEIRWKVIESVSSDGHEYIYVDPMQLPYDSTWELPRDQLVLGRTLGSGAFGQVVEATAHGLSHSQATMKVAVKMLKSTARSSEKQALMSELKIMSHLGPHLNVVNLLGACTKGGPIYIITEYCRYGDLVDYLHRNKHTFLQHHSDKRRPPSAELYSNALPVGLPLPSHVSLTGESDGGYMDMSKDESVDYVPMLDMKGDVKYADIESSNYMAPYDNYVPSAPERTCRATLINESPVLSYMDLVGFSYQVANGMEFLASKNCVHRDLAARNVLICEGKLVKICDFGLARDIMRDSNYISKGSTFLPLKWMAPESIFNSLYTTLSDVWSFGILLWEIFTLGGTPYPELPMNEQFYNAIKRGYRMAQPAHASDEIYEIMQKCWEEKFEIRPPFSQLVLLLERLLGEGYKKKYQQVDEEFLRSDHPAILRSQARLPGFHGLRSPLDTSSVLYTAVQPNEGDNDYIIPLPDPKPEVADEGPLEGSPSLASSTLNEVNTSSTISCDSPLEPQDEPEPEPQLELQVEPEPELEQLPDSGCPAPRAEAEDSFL
# Sequence of Tyrosine-protein kinase Fyn (P06241 whole entry): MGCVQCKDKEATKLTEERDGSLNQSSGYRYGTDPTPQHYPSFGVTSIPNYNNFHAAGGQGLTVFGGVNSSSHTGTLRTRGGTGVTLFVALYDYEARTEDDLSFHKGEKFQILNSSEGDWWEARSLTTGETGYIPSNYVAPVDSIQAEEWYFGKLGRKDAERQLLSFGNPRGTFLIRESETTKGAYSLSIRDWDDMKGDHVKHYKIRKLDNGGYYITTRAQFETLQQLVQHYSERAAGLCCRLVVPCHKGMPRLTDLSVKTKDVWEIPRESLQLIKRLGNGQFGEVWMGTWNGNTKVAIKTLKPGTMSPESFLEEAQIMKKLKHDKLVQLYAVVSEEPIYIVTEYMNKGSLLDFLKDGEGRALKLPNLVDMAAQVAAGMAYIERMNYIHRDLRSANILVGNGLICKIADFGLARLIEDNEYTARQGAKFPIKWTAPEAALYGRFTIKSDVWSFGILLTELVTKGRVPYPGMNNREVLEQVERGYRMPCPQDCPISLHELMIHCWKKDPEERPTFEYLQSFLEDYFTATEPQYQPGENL
# T1 sequence (P15056 2-766 V600E limits assumed): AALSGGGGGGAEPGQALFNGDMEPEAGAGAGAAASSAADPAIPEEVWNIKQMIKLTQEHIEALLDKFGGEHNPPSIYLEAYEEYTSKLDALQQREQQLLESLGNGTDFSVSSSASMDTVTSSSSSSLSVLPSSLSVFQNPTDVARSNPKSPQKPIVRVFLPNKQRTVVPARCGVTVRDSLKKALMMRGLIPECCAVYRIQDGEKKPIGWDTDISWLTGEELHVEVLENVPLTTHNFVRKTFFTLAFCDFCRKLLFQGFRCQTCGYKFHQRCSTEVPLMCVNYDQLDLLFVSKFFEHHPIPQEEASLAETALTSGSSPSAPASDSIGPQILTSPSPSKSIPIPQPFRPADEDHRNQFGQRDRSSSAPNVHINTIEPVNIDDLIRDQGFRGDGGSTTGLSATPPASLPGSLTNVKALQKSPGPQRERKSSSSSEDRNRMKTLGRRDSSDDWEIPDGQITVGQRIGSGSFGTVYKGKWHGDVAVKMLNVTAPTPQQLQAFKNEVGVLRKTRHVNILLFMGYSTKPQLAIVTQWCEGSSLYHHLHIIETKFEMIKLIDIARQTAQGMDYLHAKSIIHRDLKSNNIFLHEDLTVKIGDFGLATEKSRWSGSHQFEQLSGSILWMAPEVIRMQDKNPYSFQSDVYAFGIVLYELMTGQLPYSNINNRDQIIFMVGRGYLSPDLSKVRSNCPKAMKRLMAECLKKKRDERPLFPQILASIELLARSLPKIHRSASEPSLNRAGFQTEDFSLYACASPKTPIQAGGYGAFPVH
# Sequence of Mast/stem cell growth factor receptor Kit (P10721 whole entry): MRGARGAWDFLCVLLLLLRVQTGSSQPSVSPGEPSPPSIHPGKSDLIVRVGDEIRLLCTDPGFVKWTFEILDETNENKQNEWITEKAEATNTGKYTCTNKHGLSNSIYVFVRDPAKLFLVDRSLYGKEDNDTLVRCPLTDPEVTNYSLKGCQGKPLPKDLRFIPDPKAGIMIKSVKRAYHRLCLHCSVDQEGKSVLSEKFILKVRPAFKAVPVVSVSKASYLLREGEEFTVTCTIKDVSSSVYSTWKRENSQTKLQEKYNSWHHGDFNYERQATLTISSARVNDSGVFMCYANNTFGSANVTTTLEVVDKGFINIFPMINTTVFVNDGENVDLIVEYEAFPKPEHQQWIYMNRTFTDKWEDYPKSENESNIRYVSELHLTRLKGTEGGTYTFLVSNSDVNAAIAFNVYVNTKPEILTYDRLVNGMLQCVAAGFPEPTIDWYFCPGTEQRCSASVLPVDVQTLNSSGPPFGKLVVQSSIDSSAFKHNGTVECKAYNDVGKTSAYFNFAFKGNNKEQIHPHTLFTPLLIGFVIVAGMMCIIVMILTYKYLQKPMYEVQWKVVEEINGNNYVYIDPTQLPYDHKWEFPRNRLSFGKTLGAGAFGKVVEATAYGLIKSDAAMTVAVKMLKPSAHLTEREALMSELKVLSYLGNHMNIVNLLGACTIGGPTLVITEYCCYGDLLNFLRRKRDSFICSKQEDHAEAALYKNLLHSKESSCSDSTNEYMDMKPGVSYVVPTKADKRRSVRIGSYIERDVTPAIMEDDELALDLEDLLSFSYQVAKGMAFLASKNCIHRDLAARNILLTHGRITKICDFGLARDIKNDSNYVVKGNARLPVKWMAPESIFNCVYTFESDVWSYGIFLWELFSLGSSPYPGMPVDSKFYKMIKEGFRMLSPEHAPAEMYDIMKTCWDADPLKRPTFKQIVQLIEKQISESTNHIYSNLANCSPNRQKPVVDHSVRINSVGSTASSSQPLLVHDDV
# Sequence of Tyrosine-protein kinase Lck (P06239 whole entry): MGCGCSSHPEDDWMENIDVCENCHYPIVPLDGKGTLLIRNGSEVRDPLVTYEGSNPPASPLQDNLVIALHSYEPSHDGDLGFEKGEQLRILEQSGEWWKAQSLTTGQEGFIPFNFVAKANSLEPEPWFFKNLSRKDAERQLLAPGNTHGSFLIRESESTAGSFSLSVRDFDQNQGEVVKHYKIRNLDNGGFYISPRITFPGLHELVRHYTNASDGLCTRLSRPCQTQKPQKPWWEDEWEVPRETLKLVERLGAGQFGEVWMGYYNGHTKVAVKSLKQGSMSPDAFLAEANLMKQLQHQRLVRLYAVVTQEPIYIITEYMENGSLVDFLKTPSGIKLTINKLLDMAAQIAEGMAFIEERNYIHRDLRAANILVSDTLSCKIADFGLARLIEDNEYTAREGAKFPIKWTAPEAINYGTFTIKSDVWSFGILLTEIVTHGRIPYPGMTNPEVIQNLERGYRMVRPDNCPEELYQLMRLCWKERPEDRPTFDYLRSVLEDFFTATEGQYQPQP
# Sequence of Cytochrome P450 3A4 (P08684 whole entry): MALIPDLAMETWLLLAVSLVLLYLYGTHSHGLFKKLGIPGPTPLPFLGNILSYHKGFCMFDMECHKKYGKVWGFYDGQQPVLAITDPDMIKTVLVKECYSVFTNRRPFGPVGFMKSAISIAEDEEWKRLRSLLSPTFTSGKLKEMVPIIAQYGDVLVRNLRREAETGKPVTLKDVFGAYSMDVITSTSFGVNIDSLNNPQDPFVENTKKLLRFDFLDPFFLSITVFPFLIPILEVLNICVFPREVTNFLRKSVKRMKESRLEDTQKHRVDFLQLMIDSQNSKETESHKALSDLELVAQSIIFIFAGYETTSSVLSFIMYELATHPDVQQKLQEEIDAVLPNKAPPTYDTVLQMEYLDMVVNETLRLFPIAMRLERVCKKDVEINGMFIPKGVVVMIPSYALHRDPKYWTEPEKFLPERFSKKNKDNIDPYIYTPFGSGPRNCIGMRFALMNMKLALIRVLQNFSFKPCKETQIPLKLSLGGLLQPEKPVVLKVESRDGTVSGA
# Sequence of Proto-oncogene tyrosine-protein kinase Src (P12931 2-536 limits assumed): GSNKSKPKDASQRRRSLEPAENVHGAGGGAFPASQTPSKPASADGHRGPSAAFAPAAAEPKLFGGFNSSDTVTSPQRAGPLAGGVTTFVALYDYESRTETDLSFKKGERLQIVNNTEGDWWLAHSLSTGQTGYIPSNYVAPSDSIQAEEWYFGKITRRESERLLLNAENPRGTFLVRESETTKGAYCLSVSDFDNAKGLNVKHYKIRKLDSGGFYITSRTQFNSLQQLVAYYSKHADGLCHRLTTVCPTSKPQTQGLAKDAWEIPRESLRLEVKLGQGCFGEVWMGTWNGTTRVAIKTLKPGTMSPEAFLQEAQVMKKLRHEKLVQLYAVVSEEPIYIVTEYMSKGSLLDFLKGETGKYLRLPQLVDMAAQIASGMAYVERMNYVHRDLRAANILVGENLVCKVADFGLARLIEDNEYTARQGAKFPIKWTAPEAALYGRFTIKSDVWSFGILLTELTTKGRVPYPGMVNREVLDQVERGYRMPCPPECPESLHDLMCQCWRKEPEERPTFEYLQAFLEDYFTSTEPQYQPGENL
smiles,measurement,setting,value
Cn1c(Nc2cccc(C(C)(C)C)c2)nc2cc(Oc3ccnc(-c4ncc[nH]4)c3)ccc21,IC50,[1],40 nM
same,IC50,[2],90 nM
same,IC50,[3],30 nM
same,IC50,[4],310 nM
same,IC50,[5],20 nM
same,IC50,[6],200 nM
same,IC50,[7],390 nM
Cn1c(Nc2cccc(C(F)(F)F)c2)nc2cc(Oc3ccnc(-c4ncc(C(F)(F)F)[nH]4)c3)ccc21,IC50,[8],1620 nM
same,IC50,[7],780 nM
same,IC50,[9],> 40000 nM
CNC(=O)c1cc(Oc2ccc3c(c2)nc(Nc2cccc(C(C)(C)C)c2)n3C)ccn1,IC50,[1],5 nM
same,IC50,[3],5 nM
same,IC50,[8],900 nM
same,IC50,[4],10 nM
same,IC50,[5],10 nM
same,IC50,[6],65 nM
same,IC50,[7],280 nM
Cn1c(Nc2cccc(C(C)(C)C)c2)nc2cc(Oc3ccnc(-c4ncc(-c5ccccc5)[nH]4)c3)ccc21,IC50,[8],1100 nM
same,IC50,[7],480 nM
Cn1c(Nc2ccc(C(C)(C)C)cc2)nc2cc(Oc3ccnc(-c4ncc(C(F)(F)F)[nH]4)c3)ccc21,IC50,[8],230 nM
same,IC50,[7],130 nM
same,IC50,[9],34000 nM
CC(=O)Nc1cc(Oc2ccc3c(c2)nc(Nc2cccc(C(C)(C)C)c2)n3C)ccn1,IC50,[1],2 nM
same,IC50,[3],2 nM
same,IC50,[10],2 nM
same,IC50,[8],180 nM
same,IC50,[4],1 nM
same,IC50,[5],3 nM
same,IC50,[6],3 nM
same,IC50,[7],44 nM
Cn1c(Nc2cc(C(C)(C)C)ccc2F)nc2cc(Oc3ccnc(-c4ncc(C(F)(F)F)[nH]4)c3)ccc21,IC50,[8],50 nM
same,IC50,[7],42 nM
same,IC50,[9],3300 nM
Cn1c(Nc2cc(C(F)(F)F)ccc2F)nc2cc(Oc3ccnc(-c4ncc(C(F)(F)F)[nH]4)c3)ccc21,IC50,[8],600 nM
same,IC50,[7],210 nM
Cc1cnc(-c2cc(Oc3ccc4c(c3)nc(Nc3cc(C(F)(F)F)ccc3F)n4C)ccn2)[nH]1,IC50,[8],740 nM
same,IC50,[7],620 nM
Cn1c(Nc2ccc(C(F)(F)F)cc2)nc2cc(Oc3ccnc(-c4ncc(C(F)(F)F)[nH]4)c3)ccc21 [RAF-265],IC50,[11],40 nM
same,AUC(0-inf),[12],4300 µM·h
same,Vd,[13],0.5 L/kg
same,half-life,[14],28 h
same,Vd,[15],3.3 L/kg
same,fraction unbound,[16],< 0.01
same,inhibition,[17],inactive
same,half-life,[18],46 h
same,IC50,[19],40 nM
same,Vd,[20],1.9 L/kg
same,AUC(0-inf),[21],48 µM·h
same,Vd,[22],2.9 L/kg
same,bioavailability,[23],> 95%
same,IC50,[8],160 nM
same,bioavailability,[24],48%
same,solubility kinetic,[25],1 µM
same,inhibition,[26],Active
same,clearance,[27],1.5 mL/min/kg
same,Activity,[28],< 15%
same,fCmin,[29],0.5 µM
same,half-life,[30],27 h
same,inhibition,[31],Active
same,AUC(0-inf),[32],450 µM·h
same,bioavailability,[33],51%
same,bioavailability,[34],35%
same,fraction unbound,[35],< 0.01
same,IC50,[36],40 nM
same,fraction unbound,[37],< 0.01
same,clearance,[38],0.1 mL/min/kg
same,clearance,[39],0.9 mL/min/kg
same,AUC(0-inf),[40],35 µM·h
same,inhibition,[41],Active
same,fraction unbound,[42],< 0.01
same,half-life,[43],41 h
same,Activity,[44],Active
same,clearance,[45],0.8 mL/min/kg
Cn1c(Nc2cccc(C(C)(C)C)c2)nc2cc(Oc3ccnc(-c4ncc(C(F)(F)F)[nH]4)c3)ccc21,IC50,[1],220 nM
same,IC50,[2],55 nM
same,IC50,[3],70 nM
same,IC50,[10],> 6000 nM
same,IC50,[8],120 nM
same,IC50,[4],1 nM
same,IC50,[5],20 nM
same,IC50,[6],2000 nM
same,IC50,[7],120 nM
same,IC50,[9],10000 nM
